# Laboratory results from patent publication US12221453B2, “Substituted pyrazolo[5′,1′:2,3]pyrimido[5,4-b][1,4]oxazines as TYK2 inhibitors” (TAKEDA PHARMACEUTICAL COMPANY LIMITED, priority 2018, dated 2025).
# Test system: IL-12 induced STAT4 phosphorylation mediated by TYK2/JAK2
# Experiment: IL-12 induced pSTAT4 in human PBMC
# Type: cell-based
# Details: 1 hr compound, 1.7 ng/mL IL-12 for 30 minutes
# Method in brief: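 Thawed human PBMC were pre-incubated with compound for 1 hr at 37 °C (0.1% DMSO), then stimulated with 1.7 ng/mL IL-12 for 30 minutes. Phospho-STAT4 and total STAT4 were measured in cell lysates by MSD.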
row,IC50 [µM],Structure (SMILES)
1,< 0.1,CNc1cc(-c2cn(C3COC3)c3ncccc23)nc2c(C(=O)NC3CCC3(F)F)cnn12 (stereo not drawn) [Compound I-673]
2,< 0.1,CNc1cc(-c2cn(C3COC3)c3ncccc23)nc2c(C(=O)N[C@@H]3CCC3(F)F)cnn12 [Compound I-675]
3,< 0.1,CNc1cc(-c2cn(C3CN(C)C3)c3ncccc23)nc2c(C(=O)NC3CCC3(F)F)cnn12 (stereo not drawn) [Compound I-676]
4,< 0.1,CNc1cc(-c2cn([C@H]3C[C@@H](O)C3)c3ncccc23)nc2c(C(=O)NC3CCC3(F)F)cnn12 (stereo partly drawn) [Compound I-677]
5,< 0.1,CNc1cc(-c2cn(C3CCCC3)c3ncccc23)nc2c(C(=O)NC3CCC3(F)F)cnn12 (stereo not drawn) [Compound I-680]
6,< 0.1,CNc1cc(-c2cn(C3CCCC3)c3ncccc23)nc2c(C(=O)N[C@@H]3CCC3(F)F)cnn12 [Compound I-681]
7,< 0.1,CNc1cc(-c2cn(C3CCCC3)c3ncccc23)nc2c(C(=O)N[C@H]3CCC3(F)F)cnn12 [Compound I-685]
8,< 0.1,CNc1cc(-c2cn([C@@H]3CCN(C)C3)c3ncccc23)nc2c(C(=O)NC3CCC3(F)F)cnn12 (stereo partly drawn) [Compound I-686]
9,< 0.1,CNc1cc(-c2cn([C@@H]3COC[C@H]3O)c3ncccc23)nc2c(C(=O)NC3CCC3(F)F)cnn12 (stereo partly drawn) [Compound I-692]
10,< 0.1,CNc1cc(-c2cn([C@@H]3COC[C@H]3O)c3ncccc23)nc2c(C(=O)N[C@H]3CCC3(F)F)cnn12 [Compound I-693]
11,< 0.1,CNc1cc(-c2cn([C@H]3COC[C@@H]3O)c3ncccc23)nc2c(C(=O)NC3CCC3(F)F)cnn12 (stereo partly drawn) [Compound I-695]
12,< 0.1,CNc1cc(-c2cn(C3CCOCC3)c3ncccc23)nc2c(C(=O)N[C@H]3CCC3(F)F)cnn12 [Compound I-699]
13,< 0.1,CNc1cc(-c2cn([C@@H]3CCOC[C@@H]3OC)c3ncccc23)nc2c(C(=O)NC3CCC3(F)F)cnn12 (stereo partly drawn) [Compound I-702]
14,< 0.1,CNc1cc(-c2cn([C@@H]3CCOC[C@@H]3OC)c3ncccc23)nc2c(C(=O)N[C@H]3CCC3(F)F)cnn12 [Compound I-703]
15,< 0.1,CNc1cc(-c2cn([C@H]3CC3(F)F)c3ncccc23)nc2c(C(=O)N[C@@H]3COC[C@@H]3O)cnn12 [Compound I-711]
16,< 0.1,CNc1cc(-c2cn([C@H]3CCC[C@H]3F)c3ncccc23)nc2c(C(=O)N[C@H]3COC[C@H]3O)cnn12 [Compound I-722]
17,< 0.1,CNc1cc(-c2cn([C@H]3COC[C@H]3F)c3ncccc23)nc2c(C(=O)N[C@H]3COC[C@H]3O)cnn12 [Compound I-726]
18,< 0.1,CNc1cc(-c2cn([C@H]3COC[C@@H]3OC)c3ccccc23)nc2c(C(=O)NC3CC[C@@H]3OC)cnn12 (stereo partly drawn) [Compound I-741]
19,< 0.1,CNc1cc(-c2cn([C@H]3COC[C@@H]3OC)c3ccccc23)nc2c(C(=O)N[C@H]3CC[C@@H]3OC)cnn12 [Compound I-742]
20,< 0.1,CNc1cc(-c2cn([C@@H]3COC[C@H]3OC)c3ccccc23)nc2c(C(=O)NC3CC[C@@H]3OC)cnn12 (stereo partly drawn) [Compound I-744]
21,< 0.1,CNc1cc(-c2cn([C@@H]3COC[C@H]3OC)c3ccccc23)nc2c(C(=O)N[C@@H]3CC[C@H]3OC)cnn12 [Compound I-746]
22,< 0.1,O=C(N[C@@H]1C[C@@H]1F)c1cnn2c3c(c(Nc4cccc5ocnc45)nc12)OCCN3 [Compound I-752]
23,< 0.1,CC(C)n1cc(-c2nc3c(C(=O)NC4CC[C@H]4O)cnn3c3c2OCCN3)c2cccnc21 (stereo partly drawn) [Compound I-753]
24,< 0.1,CC(C)n1cc(-c2nc3c(C(=O)N[C@H]4CC[C@H]4O)cnn3c3c2OCCN3)c2cccnc21 [Compound I-754]
25,< 0.1,O=C(NC1CC[C@@H]1F)c1cnn2c3c(c(-c4cn([C@H]5C[C@H](O)C5)c5ncccc45)nc12)OCCN3 (stereo partly drawn) [Compound I-756]
26,< 0.1,O=C(N[C@H]1CC[C@@H]1F)c1cnn2c3c(c(-c4cn([C@H]5C[C@H](O)C5)c5ncccc45)nc12)OCCN3 [Compound I-757]
27,< 0.1,CO[C@@H]1CC[C@H]1NC(=O)c1cnn2c3c(c(Nc4cccn(C(C)C)c4=O)nc12)OCCN3 [Compound I-760]
